We go through 12 compounds from patent publication US10508103B2, “Benzimidazole-linked indole compound acting as novel divalent IAP antagonist” (MEDSHINE DISCOVERY INC., priority 2016, dated 2019).

Experiment [1] concerns NF-κB Luciferase Reporter Hela cells. The experiment is described as follows: TNF-α inducing NF-κB reporter. It counts as cell-based. The note with it: Homo sapiens, 6 h, Table 3, 20 ng/mL TNF-α, Bright-Glo luciferase, values given as ranges. Here is the method: Biological Assay 2: TNF-α inducing NF-κB reporter
• 1) tested compounds were added into DMSO to give parent liquor (10 mM); • 2) reference compound Birinapant (32 μL, 10 mM) was added into DMSO (128 μL) to give a solution (2 mM); • 3) 0.5 μL reference compound Birinapant (2 mM) and tested compounds (10 mM) were taken by Echo and added into Greiner 96 well black cell culture plate respectively. The initial concentration of the reference compound and tested compound was 10 μM and 50 μM, respectively. Then, the reference compound and tested compounds were diluted at 9 points in series by 5-fold; and every plate was repeated for 3 times. • 4) the reference compound WXFL2012A001 (Birinapant) (final concentration: 10 μM) as HPE and DMSO (final concentration: 0.5%) as ZPE.
• 5) purpose of the three repeated plates: the first plate was used for testing compounds' activity;
the second plate was used for testing cytotoxicity of the compounds; the third plate was used for solution replacement of the first and second plates: mixing inducer TNF-α and medium containing 0.1% FBS, and then being added to the third plate and the resultant mixture was transferred to the first plate where supernatants had been removed.
• 1) removing medium in NF-iBLuciferase Reporter Hela cell culture flask and washing cell once with PBS (10 mL) • 2) adding 0.25% pancreatin (3 mL) to T150 cell culture flask, and placinginto cell incubator (37° C., 5%CO2) and dissociating cell for 3 min, and then medium (10 mL) was added to end dissociation and blowing cells with electric pipette until cells were dispersed into single cell. • 3) Calculating cell density with cell counter Countstar • 4) Adjusting NF-κB Luciferase Reporter Hela density with medium to 2.0×10^5 cells/mL • 5) Adding cells to two Greiner 96 well black cell culture plates containing compounds, (100 μL per well (2.0×10^4 cells/well)), one plate was used for testing compounds' activity, another was used for testing cytotoxicity of the compounds. • 6) Placing cell culture plates into cell incubator (37° C., 5%CO2) and incubatingfor 24 h Second Day TNF-α Inducing • 1) TNF-α (100 μg/mL) was diluted into 20 ng/mL with 0.1% FBS medium and transferredto the third plate with 100 μL per well • 2) Removing medium of the first 96 well black cell culture plate (compound activity testing plate) after 24 h, replacing with fresh medium containing the compound and 20 ng/mL TNF-α in the third plate • 3) Placing cell culture plate into cell incubator (37° C., 5% CO2) and incubatingfor 6 h • 4) after 6 h, compound's activity in the first plate was tested according to Bright-Glo (Promega) manual method, luciferase signal in each well was tested by Envision plate reader • 5) compound's cytotoxicity in the second plate was tested according to ATPlite 1Step (Perkin Elmer) manual method, luciferase signal in each well was tested by Envision plate reader • 6) analyzing with software to obtain EC50 of compound.

The target in the next experiment is cIAP2-BIR3 Protein (Homo sapiens (Human), UniProt Q13489). The experiment is described as follows: Fluorescence polarization affinity of compounds to cIAP2-BIR3. The note with it: cIAP2-BIR3 60 nM; 5 nM ARPFAQ-K(5-FAM)-NH2 probe; FP; pH 7.5; read-out: affinity to target protein in vitro, cIAP2-BIR3 Protein (IC50). It counts as binding. Here is the method:
(§1) Biological Assay 1: affinity of compounds to cIAP1-BIR3, cIAP2-BIR3, XIAP-BIR3 • 1) Affinity of compounds listed in table to cIAP1-BIR3, Ciap2-BIR3, XIAP-BIR3 was tested referring to Nikolovska-Colesks, Z. et.Al. (Analytical Biochemistry,2004,232:261-273) to obtain IC50 value. Generally speaking, in 10-dose IC50 mode, IAP antagonists with different concentrations were diluted in series by 3-fold and fluorescence labelled ARPFAQ-K (5-FAM)-NH2 peptide was used as probe to test compounds binding to protein BIR3 domain. • 2) Test condition: cIAP1-BIR3: 20 nM; cIAP2-BIR3: 60 nM; XIAP-BIR3: 30 nM; 5 nM probe in 100 mM tripotassium phosphate, pH 7.5, 0.1 mg/mL BSA, 0.005% Triton X100 and 0.5% DMSO. • 3) Test procedure: compounds were added into protein with different concentrations by using ECHO (LabCyte), and then the mixture was preincubated for 15 min. The probe was added and the final concentration was 5 nM. After incubating for 60 min, FP was tested and mP was calculated. Experiment results were list in table 1.
In general terms: Fluorescence polarisation rises when a labelled molecule tumbles more slowly, as on binding a larger partner.

A further experiment has as its target XIAP-BIR3 Protein (Homo sapiens (Human), UniProt P98170). The experiment is described as follows: Fluorescence polarization affinity of compounds to XIAP-BIR3. Type of experiment: binding. The settings on record: XIAP-BIR3 30 nM; 5 nM ARPFAQ-K(5-FAM)-NH2 probe; FP; pH 7.5; read-out: affinity to target protein in vitro, XIAP-BIR3 Protein (IC50). Here is the method:
as §1

The target of a further experiment is cIAP1-BIR3 Protein (Homo sapiens (Human), UniProt Q13490). The experiment is described as follows: Fluorescence polarization affinity of compounds to cIAP1-BIR3. It counts as binding. The settings on record: cIAP1-BIR3 20 nM; 5 nM ARPFAQ-K(5-FAM)-NH2 probe; FP; pH 7.5; read-out: affinity to target protein in vitro, cIAP1-BIR3 Protein (IC50). As for the experimental part: as §1
Chain of cIAP1-BIR3 Protein (Q13490 253-363): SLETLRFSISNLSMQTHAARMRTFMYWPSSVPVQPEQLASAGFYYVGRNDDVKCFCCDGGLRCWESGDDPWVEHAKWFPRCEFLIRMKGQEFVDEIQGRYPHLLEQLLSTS

Chain of cIAP2-BIR3 Protein (Q13489 238-349): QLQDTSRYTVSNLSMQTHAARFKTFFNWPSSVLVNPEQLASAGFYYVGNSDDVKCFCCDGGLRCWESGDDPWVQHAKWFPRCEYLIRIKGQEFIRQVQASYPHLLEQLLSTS
Chain of XIAP-BIR3 Protein (P98170 241-356): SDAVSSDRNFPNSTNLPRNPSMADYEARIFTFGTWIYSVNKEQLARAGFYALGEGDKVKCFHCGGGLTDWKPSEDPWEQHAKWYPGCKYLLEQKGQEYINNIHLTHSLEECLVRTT

Usually EC50 stands for the concentration that produces a half-maximal response. In general, IC50 refers to the concentration at which inhibition is half-maximal. As for `CN[C@@H](C)C(=O)N[C@H](C(=O)N1C[C@@H](F)C[C@H]1Cc1c(-c2nc3cc(F)ccc3n2C[C@@H]2C[C@H](F)CN2C(=O)[C@@H](NC(=O)[C@H](C)NC)C(C)(C)C)[nH]c2cc(F)ccc12)C1CC1` [Embodiment 29], the half-maximal effective concentration (EC50) in experiment [1] was < 10 nM. Besides, the 50% inhibitory concentration (IC50) was 10 to 100 nM on cIAP2-BIR3 Protein, 10 to 100 nM at XIAP-BIR3 Protein and < 10 nM at cIAP1-BIR3 Protein.

For `CN[C@@H](C)C(=O)N[C@H](C(=O)N1C[C@@H](F)C[C@H]1Cc1c(-c2nc3cc(F)ccc3n2C[C@@H]2C[C@H](F)CN2C(=O)[C@@H](NC(=O)[C@H](C)NC)C2CCCCC2)[nH]c2cc(F)ccc12)C1CC1` [Embodiment 30], in experiment [1], the 50% effective concentration (EC50) was < 10 nM. The values for the IC50 on cIAP2-BIR3 Protein, on XIAP-BIR3 Protein and at cIAP1-BIR3 Protein were 10 to 100 nM, 10 to 100 nM and < 10 nM, respectively.

With `CC[C@H](NC(=O)[C@H](C)NC)C(=O)N1C[C@@H](F)C[C@H]1Cc1c(-c2nc3cc(F)ccc3n2C[C@@H]2C[C@H](F)CN2C(=O)[C@@H](NC(=O)[C@H](C)NC)C2CC2)[nH]c2cc(F)ccc12` [Embodiment 31], in experiment [1], the EC50 is 10 to 100 nM. The 50% inhibitory concentration (IC50) on cIAP2-BIR3 Protein was 10 to 100 nM; on XIAP-BIR3 Protein, 10 to 100 nM; at cIAP1-BIR3 Protein, < 10 nM.

As to `CCC[C@H](NC(=O)[C@H](C)NC)C(=O)N1C[C@@H](F)C[C@H]1Cc1c(-c2nc3cc(F)ccc3n2C[C@@H]2C[C@H](F)CN2C(=O)[C@@H](NC(=O)[C@H](C)NC)C(C)C)[nH]c2cc(F)ccc12` [Embodiment 32], the EC50 in experiment [1] was < 10 nM. Further, the half-inhibitory concentration (IC50) is 10 to 100 nM at cIAP2-BIR3 Protein, 10 to 100 nM on XIAP-BIR3 Protein and < 10 nM on cIAP1-BIR3 Protein.

Consider `CCC[C@H](NC(=O)[C@H](C)NC)C(=O)N1C[C@@H](F)C[C@H]1Cn1c(-c2[nH]c3cc(F)ccc3c2C[C@@H]2C[C@H](F)CN2C(=O)[C@@H](NC(=O)[C@H](C)NC)C2CCCCC2)nc2cc(F)ccc21` [Embodiment 36], for which the half-maximal effective concentration (EC50) in experiment [1] was < 10 nM. For the same compound, the results for the IC50 at cIAP2-BIR3 Protein, on XIAP-BIR3 Protein and on cIAP1-BIR3 Protein were 10 to 100 nM, 10 to 100 nM and < 10 nM, respectively.

Regarding `CC[C@H](NC(=O)[C@H](C)NC)C(=O)N1CCC[C@H]1Cc1c(-c2nc3cc(F)ccc3n2C[C@@H]2C[C@H](F)CN2C(=O)[C@@H](NC(=O)[C@H](C)NC)C(C)(C)C)[nH]c2cc(F)ccc12` [Embodiment 38], in experiment [1], the EC50 was < 10 nM. Besides, the IC50 on cIAP2-BIR3 Protein is 10 to 100 nM; at XIAP-BIR3 Protein, < 10 nM; at cIAP1-BIR3 Protein, < 10 nM.

In turn, `CC[C@H](NC(=O)[C@H](C)NC)C(=O)N1C[C@@H](F)C[C@H]1Cc1c(-c2nc3cc(F)ccc3n2C[C@@H]2CCCN2C(=O)[C@@H](NC(=O)[C@H](C)NC)C(C)C)[nH]c2cc(F)ccc12` [Embodiment 39] had an EC50 in experiment [1] of 10 to 100 nM. In addition, the IC50 is 10 to 100 nM on cIAP2-BIR3 Protein, < 10 nM at XIAP-BIR3 Protein and < 10 nM on cIAP1-BIR3 Protein.

For `CC[C@H](NC(=O)[C@H](C)NC)C(=O)N1C[C@@H](F)C[C@H]1Cc1c(-c2nc3cc(F)ccc3n2C[C@@H]2CCCN2C(=O)[C@@H](NC(=O)[C@H](C)NC)C(C)(C)C)[nH]c2cc(F)ccc12` [Embodiment 40], the concentration giving a half-maximal response (EC50) in experiment [1] is < 10 nM. The figures for the 50% inhibitory concentration (IC50) on cIAP2-BIR3 Protein, at XIAP-BIR3 Protein and at cIAP1-BIR3 Protein were 10 to 100 nM, 10 to 100 nM and < 10 nM, respectively.

In experiment [1], `CC[C@H](NC(=O)[C@H](C)NC)C(=O)N1CCC[C@H]1Cn1c(-c2[nH]c3cc(F)ccc3c2C[C@@H]2C[C@H](F)CN2C(=O)[C@@H](NC(=O)[C@H](C)NC)C(C)(C)C)nc2cc(F)ccc21` [Embodiment 42] displayed an EC50 of 10 to 100 nM. The IC50 is 10 to 100 nM on cIAP2-BIR3 Protein, < 10 nM at XIAP-BIR3 Protein and < 10 nM on cIAP1-BIR3 Protein.

On to `CC[C@H](NC(=O)[C@H](C)NC)C(=O)N1CC(F)(F)C[C@H]1Cc1c(-c2nc3cc(F)ccc3n2C[C@@H]2CC(F)(F)CN2C(=O)[C@H](CC)NC(=O)[C@H](C)NC)[nH]c2cc(F)ccc12` [Embodiment 43], for which the EC50 in experiment [1] was > 100 nM. Further, the IC50 at cIAP2-BIR3 Protein, at XIAP-BIR3 Protein and on cIAP1-BIR3 Protein was 10 to 100 nM throughout.

For the compound `CN[C@@H](C)C(=O)N[C@H](C(=O)N1CC(F)(F)C[C@H]1Cc1c(-c2nc3cc(F)ccc3n2C[C@@H]2CC(F)(F)CN2C(=O)[C@@H](NC(=O)[C@H](C)NC)C2CC2)[nH]c2cc(F)ccc12)C1CC1` [Embodiment 44], the EC50 in experiment [1] was > 100 nM. Also, the figures for the concentration for half-maximal inhibition (IC50) on cIAP2-BIR3 Protein, on XIAP-BIR3 Protein and on cIAP1-BIR3 Protein were 10 to 100 nM, < 10 nM and < 10 nM, respectively.

The compound `CC[C@H](NC(=O)[C@H](C)NC)C(=O)N1CC(F)(F)C[C@H]1Cc1c(-c2nc3cc(F)ccc3n2C[C@@H]2CC(F)(F)CN2C(=O)[C@@H](NC(=O)[C@H](C)NC)C(C)C)[nH]c2cc(F)ccc12` [Embodiment 46] gave a concentration for a half-maximal effect (EC50) in experiment [1] of 10 to 100 nM. Besides, the concentration for half-maximal inhibition (IC50) on cIAP2-BIR3 Protein was 10 to 100 nM; on XIAP-BIR3 Protein, 10 to 100 nM; on cIAP1-BIR3 Protein it was < 10 nM.
